Experiments:
Assay type in all cases: binding
GALR3 = molecular target: T1, GALR3 (Homo sapiens, UniProt O60755); test: NanoBRET screen HiBiT-GALR3 in HEK293; settings: GALR3
T1 construct: purchased Promega (in-house HiBiT-GPCR construct library, NanoBRET)
T1 sequence (O60755 1-368): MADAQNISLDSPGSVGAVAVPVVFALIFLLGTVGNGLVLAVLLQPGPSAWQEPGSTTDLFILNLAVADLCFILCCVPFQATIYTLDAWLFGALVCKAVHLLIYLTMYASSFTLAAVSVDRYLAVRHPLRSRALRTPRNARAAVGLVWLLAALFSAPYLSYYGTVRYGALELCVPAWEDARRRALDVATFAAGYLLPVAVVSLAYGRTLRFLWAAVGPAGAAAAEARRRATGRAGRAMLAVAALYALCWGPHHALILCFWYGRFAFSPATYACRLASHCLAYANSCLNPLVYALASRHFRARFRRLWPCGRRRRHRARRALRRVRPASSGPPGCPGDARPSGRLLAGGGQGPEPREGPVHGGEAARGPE
Description: (§1) Each tracer candidate was screened across the entire library of HiBiT-GPCR constructs using NanoBRET as the detection modality. As depicted in Figure 4A, the specificity of interactions was evaluated through decrease in BRET due to competitive displacement of a bound tracer by excess parental compound. Each tracer was analyzed for binding to each HiBiT-GPCR fusion in the absence and in the presence of competing parental compound. Briefly, HEK293 cells were transfected with HiBiT-GPCR constructs diluted into promoterless DNA to reduce expression and maximize translocation to the cell surface. Each tracer candidate was then screened at concentrations of 1 μM and 0.1 μM across cells expressing these fusions. Cells were treated for 1.5 h with tracer either alone or in the presence of 20 μM competing parental compound (i.e., control). BRET was measured upon addition of purified LgBiT and subsequent complementation with HiBiT genetically fused to a GPCR. The specificity of interactions was assessed through a decrease in BRET signal due to competitive displacement of the bound tracer. To further gauge the robustness of these interactions, the fold response over the control (i.e., BRETtracer/BRETcontrol) was calculated. We chose a 1.5-fold response, which translates to ≥7-fold signal over noise as the minimal threshold required to score an interaction as positive. […]. Below we highlight the screening results obtained for our exemplary fluorescent tracers based on Clozapine, Amitriptyline and AZD1283.
(§2) HiBiT-GPCR DNA constructs were diluted in 10 mM Tris pH 8 to a final concentration of 0.01 μg/μL, arrayed in 96-well plates and stored at −20 °C. For transfection, HEK293 cells were suspended in Opti-MEM (without phenol red) supplemented with 2% fetal bovine serum (Seradigm) and 100 units/mL penicillin–streptomycin (Gibco) at a final concentration of 220,000 cells/mL and dispensed into white 96-well plates at 90 μL/well. Subsequent transfections and screens were carried using an Agilent Bravo Automated Liquid Handling Platform. First, the 96-well HiBiT DNA arrays were diluted 25-fold in Opti-MEM (without serum or phenol red) to a final concentration of 0.0004 μg/μL and 20 μL of the diluted DNAs were transferred into new 96-well plates. Next, promoterless carrier DNA (1 μg/μL) was diluted 25-fold (0.04 μg/μL) and then dispensed into the diluted arrays at 20 μL/well. Following brief mixing, Viafect transfection reagent (Promega) diluted 16-fold into Opti-MEM was dispensed into the plates at 40 μL/well. After mixing by pipetting, plates were incubated for 10 min on the pipetting station deck. The DNA-transfection reagent complexes were then added to plates containing cells. To facilitate the screen, 10 μL of DNA-transfection reagent complexes were added in duplicates to the top 4 and bottom 4 rows, resulting in two identical 48-well arrays per plate. Plates with transfected cells were incubated for 18–20 h at 37 °C/5% CO2. A screen of each tracer across the entire library using two different concentrations requires duplicate plates of transfected cells. Depending on the number of tracers being screened, transfections can be scaled up using the same ratios. The next day, for each tracer, four 20× screening solutions in tracer dilution buffer (Promega) were prepared: two duplicates at final concentration of 20 μM and two duplicates at a final concentration of 2 μM. A competing unmodified compound was added to one of each duplicate at a final concentration of 400 μM. The four resulting solutions were diluted 4-fold in Opti-MEM without serum or phenol red to generate 5× solutions (5 µM and 0.5 µM tracer +/− 100 μM competing compound). To screen the library, a BioTek MultiFlo FX liquid dispenser was used to dispense 22.5 µL of tracer solution to the top 4 rows and 22.5 µL tracer + competing compound solution to the 4 bottom rows. Plates were briefly mixed on an orbital shaker and incubated for 1.5 h at room temperature. […]

NTSR1 = molecular target: T2, NTSR1 (Homo sapiens, UniProt P30989); test: NanoBRET screen HiBiT-NTSR1 in HEK293; settings: NTSR1
T2 construct: purchased Promega (in-house HiBiT-GPCR construct library, NanoBRET)
Description: as §1, §2

P2RY6 = molecular target: T3, P2RY6 (Homo sapiens, UniProt Q15077); test: NanoBRET screen HiBiT-P2RY6 in HEK293; settings: P2RY6
T3 construct: purchased Promega (in-house HiBiT-GPCR construct library, NanoBRET)
Description: as §1, §2

BDKRB1 = molecular target: T4, BDKRB1 (Homo sapiens, UniProt P46663); test: NanoBRET screen HiBiT-BDKRB1 in HEK293; settings: BDKRB1
T4 construct: purchased Promega (in-house HiBiT-GPCR construct library, NanoBRET)
T4 sequence (P46663 1-353): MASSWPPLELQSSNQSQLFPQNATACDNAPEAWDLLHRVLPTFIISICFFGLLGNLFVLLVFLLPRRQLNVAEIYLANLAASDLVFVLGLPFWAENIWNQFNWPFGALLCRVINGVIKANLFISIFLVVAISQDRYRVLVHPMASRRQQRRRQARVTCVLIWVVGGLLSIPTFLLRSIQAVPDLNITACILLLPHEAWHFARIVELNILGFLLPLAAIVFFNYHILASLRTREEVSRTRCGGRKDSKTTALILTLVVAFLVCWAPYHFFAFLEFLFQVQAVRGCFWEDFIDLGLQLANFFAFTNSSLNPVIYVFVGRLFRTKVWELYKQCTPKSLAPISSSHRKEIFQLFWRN
Description: as §1, §2

GNRHR = molecular target: T5, GNRHR (Homo sapiens, UniProt P30968); test: NanoBRET screen HiBiT-GNRHR in HEK293; settings: GNRHR
T5 construct: purchased Promega (in-house HiBiT-GPCR construct library, NanoBRET)
T5 sequence (P30968 1-328): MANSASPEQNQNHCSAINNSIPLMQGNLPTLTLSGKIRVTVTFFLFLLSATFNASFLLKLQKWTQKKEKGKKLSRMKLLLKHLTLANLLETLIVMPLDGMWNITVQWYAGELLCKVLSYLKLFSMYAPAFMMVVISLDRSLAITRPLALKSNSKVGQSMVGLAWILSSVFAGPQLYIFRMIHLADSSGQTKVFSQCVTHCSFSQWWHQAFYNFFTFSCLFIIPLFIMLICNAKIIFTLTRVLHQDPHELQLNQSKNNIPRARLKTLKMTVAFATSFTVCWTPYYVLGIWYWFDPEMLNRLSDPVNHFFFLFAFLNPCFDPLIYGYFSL
Description: as §1, §2

T3 sequence (Q15077 whole entry): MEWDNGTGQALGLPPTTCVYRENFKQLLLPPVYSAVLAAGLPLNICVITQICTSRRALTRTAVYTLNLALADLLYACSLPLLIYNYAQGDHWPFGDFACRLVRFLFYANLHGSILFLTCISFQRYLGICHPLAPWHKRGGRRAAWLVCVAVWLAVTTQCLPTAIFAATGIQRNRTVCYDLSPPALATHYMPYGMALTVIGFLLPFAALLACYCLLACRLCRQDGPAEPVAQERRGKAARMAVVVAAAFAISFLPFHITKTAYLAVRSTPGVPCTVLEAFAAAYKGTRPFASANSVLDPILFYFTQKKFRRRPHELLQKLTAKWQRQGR
T2 sequence (P30989 whole entry): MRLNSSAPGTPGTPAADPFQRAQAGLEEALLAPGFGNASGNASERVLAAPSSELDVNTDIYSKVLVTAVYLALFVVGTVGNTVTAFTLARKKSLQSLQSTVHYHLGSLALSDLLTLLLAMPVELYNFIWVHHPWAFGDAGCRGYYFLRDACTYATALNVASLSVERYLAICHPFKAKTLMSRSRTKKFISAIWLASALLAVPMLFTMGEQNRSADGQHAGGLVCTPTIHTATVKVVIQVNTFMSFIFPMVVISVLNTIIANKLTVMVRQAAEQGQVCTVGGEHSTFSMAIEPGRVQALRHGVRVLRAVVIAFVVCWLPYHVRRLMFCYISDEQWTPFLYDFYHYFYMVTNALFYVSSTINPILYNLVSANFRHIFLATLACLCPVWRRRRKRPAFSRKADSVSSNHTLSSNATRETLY

CC(C)N(CC[C@H](c1ccccc1)c1cc(CCNC(=O)c2ccc(CNC(=O)CCc3ccc4n3[B-](F)(F)[N+]3=C(c5ccc[nH]5)C=CC3=C4)cc2)ccc1O)C(C)C [Tolterodine-BZ-NB590]
NanoBRET Fold Response (GALR3; tracer 0.1μM): 1.09 | NanoBRET Fold Response (GALR3; tracer 1μM): 1.00 | NanoBRET Fold Response (NTSR1; tracer 0.1μM): 1.02 | NanoBRET Fold Response (NTSR1; tracer 1μM): 1.03 | NanoBRET Fold Response (P2RY6; tracer 0.1μM): 1.03 | NanoBRET Fold Response (P2RY6; tracer 1μM): 1.08 | NanoBRET Fold Response (BDKRB1; tracer 0.1μM): 1.02 | NanoBRET Fold Response (BDKRB1; tracer 1μM): 0.85 | NanoBRET Fold Response (GNRHR; tracer 0.1μM): 1.03 | NanoBRET Fold Response (GNRHR; tracer 1μM): 1.07

CCCn1c(=O)c2[nH]c(-c3ccc(OCC(=O)NCCNC(=O)CCOCCNC(=O)c4ccc(CNC(=O)CCc5ccc6n5[B-](F)(F)[N+]5=C(c7ccc[nH]7)C=CC5=C6)cc4)cc3)nc2n(CCC)c1=O [XAC-3-NB590]
NanoBRET Fold Response (GALR3; tracer 0.1μM): 1.01 | NanoBRET Fold Response (GALR3; tracer 1μM): 1.04 | NanoBRET Fold Response (NTSR1; tracer 0.1μM): 0.98 | NanoBRET Fold Response (NTSR1; tracer 1μM): 1.02 | NanoBRET Fold Response (P2RY6; tracer 0.1μM): 1.06 | NanoBRET Fold Response (P2RY6; tracer 1μM): 1.12 | NanoBRET Fold Response (BDKRB1; tracer 0.1μM): 0.91 | NanoBRET Fold Response (BDKRB1; tracer 1μM): 0.94 | NanoBRET Fold Response (GNRHR; tracer 0.1μM): 0.94 | NanoBRET Fold Response (GNRHR; tracer 1μM): 0.98

Reference: article PMC8151276, “An Integrated Approach toward NanoBRET Tracers for Analysis of GPCR Ligand Engagement” (Molecules, 2021)
